Measured values from paper PMC3209502 (European journal of pharmacology, 2011).

How the values were obtained:
C57Bl/6 mice = test: Mouse tail suspension test; assay type: in vivo; settings: 15 mg/kg, 30 min before testing, vs vehicle
male Sprague Dawley rats = test: Rat forced swimming test; assay type: in vivo; settings: 15 mg/kg i.p., 30 min pretreatment, vs vehicle
Sprague Dawley Rats = test: Locomotor activity test; assay type: in vivo, rat; settings: 5 mg/kg i.p., measured 0.5 h from 1 h post injection, vs vehicle

Row | locomotor activity (horizontal activity, HACTV) (Sprague Dawley Rats) | Structure (SMILES) | immobility of mice in the tail suspension test (C57Bl/6 mice) | duration of immobility in the forced swimming test (male Sprague Dawley rats)
1 | – | CN(C)CCCN1c2ccccc2CCc2ccccc21 [imipramine, Imipramine] | significantly different compared to vehicle | produced a reduction in immobility
2 | significant rise | Fc1ccc(C(OCCN2CCN(CCCc3ccccc3)CC2)c2ccc(F)cc2)cc1 [GBR 12909, 1-[2-[bis(4-fluorophenyl)methoxy]ethyl]-4-[3-phenylpropyl]piperazine] | – | –
